This note sets out measurements from patent publication US20260315452A1, “PROTEASE INHIBITORS AND USES THEREOF” (priority 2023, published 2026).

A word on the EC50: it is the concentration needed to bring the measured effect to its halfway point. In general, IC50 refers to the concentration that inhibits the measured activity by half.

One assay relates to SARS-CoV-2. The experiment in a line: Anti-SARS-CoV-2 activity in A549 cells expressing the human ACE2 receptor (inhibition of SARS-CoV-2 replication). In kind it is cell-based. The note with it: for EC50: Severe acute respiratory syndrome coronavirus 2, A549-ACE2, 24 h, read-out: Antiviral Activity (EC50); for antiviral potency in A549 cells in comparison with compound Ref-2: versus Ref-2 (FIG. 7).

For a further assay, the target named is SARS-CoV-2 3CLpro (Severe acute respiratory syndrome coronavirus 2, UniProt P0DTD1). Description: biochemical. Particulars: inhibition of SARS-CoV-2 3CLpro; 15 nM 3CLpro, 25 μM fluorogenic substrate, 37° C.; read-out: Inhibitory Activity (IC50).

Structures can show the parent of a compound that is named as a salt.

For the molecule `O=C(N[C@@H]1CCNC1)c1cc(Br)cc([N+](=O)[O-])c1N[C@H]1CN(C(=O)c2cncc3ccccc23)CCC1(F)F` [Compound 46, 5-bromo-2-(((S)-4,4-difluoro-1-(isoquinoline-4-carbonyl)piperidin-3-yl)amino)-3-nitro-N-((R)-pyrrolidin-3-yl) benzamide], the 50% effective concentration (EC50) in the assay with SARS-CoV-2 was less than 100 nM. Further, the IC50 on SARS-CoV-2 3CLpro is less than 100 nM.
For the molecule `O=C(NC1CC(F)(F)C1)c1cc(Br)cc(C(F)(F)F)c1N[C@@H]1COCC[C@@H]1NC(=O)c1cncc2cc(F)ccc12` [Compound 80, N-((3S, 4S)-3-((4-bromo-2-((3,3-difluorocyclobutyl)carbamoyl)-6-(trifluoromethyl)phenyl)amino)tetrahydro-2H-pyran-4-yl)-7-fluoroisoquinoline-4-carboxamide], the 50% effective concentration (EC50) with SARS-CoV-2 was in the range of 100 to 1000 nM. The IC50 on SARS-CoV-2 3CLpro was in the range of 100 to 1000 nM.
For `CNC(=O)c1cc(Cl)cc([N+](=O)[O-])c1N[C@H]1CN(C(=O)c2cncc3ccccc23)CCC1(F)F` [Compound 92, (S)-5-chloro-2-((4,4-difluoro-1-(isoquinoline-4-carbonyl)piperidin-3-yl)amino)-N-methyl-3-nitrobenzamide], the concentration for a half-maximal effect (EC50) with SARS-CoV-2 was less than 100 nM. Also, on SARS-CoV-2 3CLpro, the IC50 was less than 100 nM.
With `O=C(NC1CC(F)(F)C1)c1cc(Cl)cc([N+](=O)[O-])c1N[C@@H]1COCC[C@@H]1NC(=O)c1cncc2ccccc12` [Compound 29, N-((3S, 4S)-3-((4-chloro-2-((3,3-difluorocyclobutyl)carbamoyl)-6-nitrophenyl)amino)tetrahydro-2H-pyran-4-yl)isoquinoline-4-carboxamide], in the assay on SARS-CoV-2, the “antiviral potency in A549 cells in comparison with compound Ref-2” value was “better antiviral potency” and the EC50 was less than 100 nM. Further, the IC50 at SARS-CoV-2 3CLpro was less than 100 nM.
As for `CNC(=O)c1cc(Br)cc([N+](=O)[O-])c1NC1CN(C(=O)c2cncc3ccccc23)CC1(F)F` (stereo not drawn) [Compound 18, 5-bromo-2-((4,4-difluoro-1-(isoquinoline-4-carbonyl)pyrrolidin-3-yl)amino)-N-methyl-3-nitrobenzamide], the concentration for a half-maximal effect (EC50) in the assay on SARS-CoV-2 was in the range of 100 to 1000 nM. On SARS-CoV-2 3CLpro, the IC50 was in the range of 100 to 1000 nM.
As for `O=C(NC1CC(F)(F)C1)c1cc(Br)cc([N+](=O)[O-])c1N1CCC2(CN(C(=O)c3cncc4ccccc34)CC2(F)F)C1` (stereo not drawn) [Compound 27, 5-bromo-2-(9,9-difluoro-7-(isoquinoline-4-carbonyl)-2,7-diazaspiro[4. 4]nonan-2-yl)-N-(3,3-difluorocyclobutyl)-3-nitrobenzamide], in the assay with SARS-CoV-2, the concentration for a half-maximal effect (EC50) lay within 100 to 1000 nM. Also, the IC50 on SARS-CoV-2 3CLpro was less than 100 nM.
Taken in the same sequence, the figures for `CNC(=O)c1cc(Br)cc([N+](=O)[O-])c1N1CCC2(CN(C(=O)c3cncc4ccccc34)CC2(F)F)C1` (stereo not drawn) [Compound 129, 5-bromo-2-(9,9-difluoro-7-(isoquinoline-4-carbonyl)-2,7-diazaspiro[4, 4]nonan-2-yl)-N-methyl-3-nitrobenzamide] were 100 to 1000 nM and 100 to 1000 nM.
For `CNC(=O)c1cc(Br)cc(C(F)(F)F)c1N[C@H]1CN(C(=O)c2cncc3ccccc23)CCC1(F)F` [Compound 35, (S)-5-bromo-2-((4,4-difluoro-1-(isoquinoline-4-carbonyl)piperidin-3-yl)amino)-N-methyl-3-(trifluoromethyl)benzamide], in that order: less than 100 nM and less than 100 nM.
Taken in the same sequence, the figures for `CNC(=O)c1cc(Br)cc([N+](=O)[O-])c1NC1CCC2(C1)CN(C(=O)c1cncc3ccccc13)C2` (stereo not drawn) [Compound 127, 5-bromo-2-((2-(isoquinoline-4-carbonyl)-2-azaspiro[3, 4]octan-6-yl)amino)-N-methyl-3-nitrobenzamide] were greater than 10000 nM and 1000 to 10000 nM.
Turning to `CNC(=O)c1cc(Br)cc([N+](=O)[O-])c1NC1CC2(C1)CN(C(=O)c1cncc3ccccc13)C2` [Compound 13, 5-bromo-2-((2-(isoquinoline-4-carbonyl)-2-azaspiro[3.3]heptan-6-yl)amino)-N-methyl-3-nitrobenzamide], the concentration for a half-maximal effect (EC50) with SARS-CoV-2 was greater than 10000 nM. The IC50 on SARS-CoV-2 3CLpro was no less than 10000 nM.
For `CC(NC(=O)c1cc(Br)cc([N+](=O)[O-])c1N[C@@H]1CCCC[C@@H]1NC(=O)c1cncc2ccccc12)C(F)(F)F` (stereo partly drawn) [Compound 60, N-((1S, 2R)-2-((4-bromo-2-nitro-6-((1,1,1-trifluoropropan-2-yl)carbamoyl)phenyl)amino)cyclohexyl)isoquinoline-4-carboxamide], in that order: 100 to 1000 nM and 100 to 1000 nM.
As to `O=C(c1cc(Cl)cc([N+](=O)[O-])c1N[C@H]1CN(C(=O)c2cncc3ccccc23)CCC1(F)F)N1CC(O)C1` [Compound 43, (S)-(5-chloro-2-((4,4-difluoro-1-(isoquinoline-4-carbonyl)piperidin-3-yl)amino)-3-nitrophenyl)(3-hydroxyazetidin-1-yl)methanone], the “antiviral potency in A549 cells in comparison with compound Ref-2” value in the assay with SARS-CoV-2 is “better antiviral potency”. Further, at SARS-CoV-2 3CLpro, the IC50 was less than 100 nM.
With `CNC(=O)c1cc(Br)cc([N+](=O)[O-])c1N[C@@H]1CCCC[C@@H]1NC(=O)c1cncc2cc(F)ccc12` [Compound 8, N-((1S, 2R)-2-((4-bromo-2-(methylcarbamoyl)-6-nitrophenyl)amino)cyclohexyl)-7-fluoroisoquinoline-4-carboxamide], the EC50 in the assay on SARS-CoV-2 was in the range of 100 to 1000 nM. Moreover, at SARS-CoV-2 3CLpro, the half-maximal inhibitory concentration (IC50) is less than 100 nM.
`O=C(NC1CC1)c1cc(Cl)cc(C(F)(F)F)c1N[C@H]1CN(C(=O)c2cncc3ccccc23)CCC1(F)F` [Compound 83, (S)-5-chloro-N-cyclopropyl-2-((4,4-difluoro-1-(isoquinoline-4-carbonyl)piperidin-3-yl)amino)-3-(trifluoromethyl)benzamide]: the concentration giving a half-maximal response (EC50) in the assay on SARS-CoV-2 is less than 100 nM. On SARS-CoV-2 3CLpro, the 50% inhibitory concentration (IC50) was less than 100 nM.
In the case of `CNC(=O)c1cc(Br)cc([N+](=O)[O-])c1N1CC(F)(F)C2(CCN(C(=O)c3cncc4ccccc34)C2)C1` (stereo not drawn) [Compound 67, 5-bromo-2-(4,4-difluoro-7-(isoquinoline-4-carbonyl)-2,7-diazaspiro[4.4]nonan-2-yl)-N-methyl-3-nitrobenzamide], the EC50 with SARS-CoV-2 fell in the range of 100 to 1000 nM. For the same molecule, the IC50 on SARS-CoV-2 3CLpro lay in the range of 100 to 1000 nM.
With `CN1CC[C@@H](NC(=O)c2cc(Cl)cc([N+](=O)[O-])c2N[C@H]2CN(C(=O)c3cncc4ccccc34)CCC2(F)F)C1` [Compound 93, 5-chloro-2-(((S)-4,4-difluoro-1-(isoquinoline-4-carbonyl)piperidin-3-yl)amino)-N-(1-methylpyrrolidin-3-yl)-3-nitrobenzamide hydrochloride], the EC50 with SARS-CoV-2 is less than 100 nM. Further, the IC50 on SARS-CoV-2 3CLpro was less than 100 nM.
With `CC(C)(O)CNC(=O)c1cc(Br)cc([N+](=O)[O-])c1N[C@H]1CN(C(=O)c2cncc3ccccc23)CCC1(F)F` [Compound 154, (S)-5-bromo-2-((4,4-difluoro-1-(isoquinoline-4-carbonyl)piperidin-3-yl)amino)-N-(2-hydroxy-2-methylpropyl)-3-nitrobenzamide], the EC50 with SARS-CoV-2 was less than 100 nM. Besides, the IC50 on SARS-CoV-2 3CLpro was less than 100 nM.
Consider `CNC(=O)c1cc(Br)cc([N+](=O)[O-])c1N[C@@H]1COCC[C@@H]1NC(=O)c1cncc2ccccc12` [Compound 132, N-((3S, 4S)-3-((4-bromo-2-(methylcarbamoyl)-6-nitrophenyl)amino)tetrahydro-2H-pyran-4-yl)isoquinoline-4-carboxamide], for which the half-maximal effective concentration (EC50) in the assay with SARS-CoV-2 is less than 100 nM. Besides, the 50% inhibitory concentration (IC50) at SARS-CoV-2 3CLpro is less than 100 nM.
Regarding `O=C(NC1CC(F)(F)C1)c1cc(Cl)cc(C(F)(F)F)c1N[C@H]1CN(C(=O)c2cncc3ccccc23)CCC1(F)F` [Compound 82, (S)-5-chloro-2-((4,4-difluoro-1-(isoquinoline-4-carbonyl)piperidin-3-yl)amino)-N-(3,3-difluorocyclobutyl)-3-(trifluoromethyl)benzamide], the concentration for a half-maximal effect (EC50) in the assay on SARS-CoV-2 is less than 100 nM. In addition, at SARS-CoV-2 3CLpro, the half-maximal inhibitory concentration (IC50) is less than 100 nM.
`O=C(NC1CC(F)(F)C1)c1cc(Br)cc([N+](=O)[O-])c1N1CCC2(CCN(C(=O)c3cncc4ccccc34)C2)C1` (stereo not drawn) [Compound 26, 5-bromo-N-(3,3-difluorocyclobutyl)-2-(7-(isoquinoline-4-carbonyl)-2,7-diazaspiro[4.4]nonan-2-yl)-3-nitrobenzamide]: in the assay on SARS-CoV-2, the EC50 was in the range of 100 to 1000 nM. At SARS-CoV-2 3CLpro, the concentration for half-maximal inhibition (IC50) is less than 100 nM.
For `CNC(=O)c1cc(Br)cc([N+](=O)[O-])c1N[C@@H]1CCCC[C@@H]1NC(=O)c1cccnc1` [Compound 1, N-((1S, 2R)-2-((4-bromo-2-(methylcarbamoyl)-6-nitrophenyl)amino)cyclohexyl)nicotinamide], in that order: 1000 to 10000 nM and 100 to 1000 nM.
Taken in the same sequence, the figures for `CNC(=O)c1cc(Br)cc([N+](=O)[O-])c1N1CCC2(CCN(C(=O)c3cncc4ccccc34)C2)C1` (stereo not drawn) [Compound 66, 5-bromo-2-(7-(isoquinoline-4-carbonyl)-2,7-diazaspiro[4.4]nonan-2-yl)-N-methyl-3-nitrobenzamide] were 100 to 1000 nM and 100 to 1000 nM.
Taken in the same sequence, the figures for `O=C(NC1CC1)c1cc(Br)cc([N+](=O)[O-])c1N[C@H]1CN(C(=O)c2cncc3ccccc23)CCC1(F)F` [Compound 147, (S)-5-bromo-N-cyclopropyl-2-((4,4-difluoro-1-(isoquinoline-4-carbonyl)piperidin-3-yl)amino)-3-nitrobenzamide] were less than 100 nM and less than 100 nM.
Consider `CNC1CN(C(=O)c2cc(Br)cc([N+](=O)[O-])c2N[C@H]2CN(C(=O)c3cncc4ccccc34)CCC2(F)F)C1` [Compound 95, (S)-(5-bromo-2-((4,4-difluoro-1-(isoquinoline-4-carbonyl)piperidin-3-yl)amino)-3-nitrophenyl)(3-(methylamino)azetidin-1-yl)methanone hydrochloride], for which, in the assay on SARS-CoV-2, the EC50 is less than 100 nM. Further, on SARS-CoV-2 3CLpro, the IC50 is less than 100 nM.
As for `O=C(N[C@H]1CCOC1)c1cc(Br)cc([N+](=O)[O-])c1N[C@H]1CN(C(=O)c2cncc3ccccc23)CCC1(F)F` [Compound 149, 5-bromo-2-(((S)-4,4-difluoro-1-(isoquinoline-4-carbonyl)piperidin-3-yl)amino)-3-nitro-N-((S)-tetrahydrofuran-3-yl)benzamide], the EC50 in the assay with SARS-CoV-2 was less than 100 nM. The IC50 at SARS-CoV-2 3CLpro is less than 100 nM.
